In patent publication US20180110824A1, “Macrocyclic Modulators of the Ghrelin Receptor” (Ocera Therapeutics, Inc., priority 2016, published 2018):
Like-named read-outs stand apart in the source and are kept apart here.

Key:
[1] = target: T1, human growth hormone secretagogue receptor (hGHS-R1a) (Homo sapiens, UniProt Q92847); assay: Competitive radioligand binding assay (ghrelin receptor), [125I]-ghrelin displacement on GHS-R/HEK 293 membranes; settings: for Ki: read-out: Ki
T1 construct: purchased PerkinElmer BioSignal #RBHGHSM; host or cells: HEK-293, stably transfected
T1 sequence (Q92847 whole entry): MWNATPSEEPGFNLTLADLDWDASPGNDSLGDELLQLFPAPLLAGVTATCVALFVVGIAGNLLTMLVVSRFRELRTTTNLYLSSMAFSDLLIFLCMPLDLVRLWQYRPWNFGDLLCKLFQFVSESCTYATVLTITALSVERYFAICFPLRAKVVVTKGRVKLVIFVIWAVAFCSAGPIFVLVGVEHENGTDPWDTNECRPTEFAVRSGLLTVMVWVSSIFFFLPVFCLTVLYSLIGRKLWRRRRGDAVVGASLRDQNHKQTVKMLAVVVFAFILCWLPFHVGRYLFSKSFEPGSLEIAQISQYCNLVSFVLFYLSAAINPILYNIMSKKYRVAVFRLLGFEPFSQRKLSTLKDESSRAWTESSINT

[2] = system: pulsatile GH release in rat; assay: Growth hormone response to test compounds in conscious, freely-moving rats; format: in vivo
Description: The following method is employed to determine the temporal pattern and magnitude of the growth hormone (GH) response to test compounds, administered either systemically or centrally. […] Further results are presented in the Examples below.
Adult male Sprague Dawley rats (225-300 g) were purchased from Charles River Canada (St. Constant, Canada) and individually housed on a 12-h light, 12-h dark cycle (lights on, time: 0600-1800) in a temperature (22±1° C.) and humidity-controlled room. Purina rat chow (Ralston Purina Co., St Louis, Mo.) and tap water were freely available. For these studies, chronic intracerebroventricular (icv) and intracardiac venous cannulas were implanted under sodium pentobarbital (50 mg/kg, ip) anesthesia using known techniques. The placement of the icv cannula was verified by both a positive drinking response to icv carbachol (100 ng/10 μl) injection on the day after surgery and methylene blue dye at the time of sacrifice. After surgery, the rats were placed directly in isolation test chambers with food and water freely available until body weight returned to preoperative levels (usually within 5-7 d). During this time, the rats were handled daily to minimize any stress associated with handling on the day of the experiment. On the test day, food was removed 1.5 h before the start of sampling and was returned at the end. Free moving rats were iv injected with either test sample at various levels (3, 30, 300, 1000 μg/kg) or normal saline at two different time points during a 6-h sampling period. The times 1100 and 1300 were chosen because they reflect typical peak and trough periods of GH secretion, as previously documented. The human ghrelin peptide, (5 μg, Phoenix Pharmaceuticals, Inc., Belmont, Calif.) was used as a positive control in the experiments and was diluted in normal saline just before use. To assess the central actions of test compounds on pulsatile GH release, a 10-fold lower dose of the test sample or normal saline, was administered icv at the same time points, 1100 and 1300. Blood samples (0.35 mL) were withdrawn every 15 min over the 6-h sampling period (time: 1000-1600) from all animals. To document the rapidity of the GH response to the test compound, an additional blood sample was obtained 5 min after each injection. […]
Plasma GH concentrations were measured in duplicate by double antibody RIA using materials supplied by the NIDDK Hormone Distribution Program (Bethesda, Md.), The averaged plasma GH values for 5-6 rats per group are reported in terms of the rat GH reference preparation. […]
• 1. […] Blood samples are drawn at defined, 15-minute intervals throughout the test day and growth hormone (GH) measured directly by radioimmunoassay. • 6. […]

[3] = system: morphine-delayed gastric emptying and gastrointestinal transit in rats; assay: Opioid (morphine)-delayed gastric emptying and gastrointestinal transit in rats; format: in vivo, rat; settings: i.v., after morphine 3 mg/kg s.c., FIG. 16B
Excerpt: Opioid analgesics, such as morphine, are well known to delay gastrointestinal transit which is an important side-effect for this class of drugs. The clinical term for this syndrome is opioid bowel dysfunction (OBD). Importantly, patients recovering from abdominal surgery experience post-operative ileus that is further exacerbated by concomitant opioid therapy for post-surgical pain.
• 1. Rats (male, Sprague-Dawley, 250-300 g) are implanted with jugular vein catheters to accommodate dosing of test articles. • 2. Overnight-fasted rats are administered morphine (3 mg/kg s.c.). • 3. […] Radioactivity (^99mTc) in each tissue isolate is measured as a means of measuring the transit of the meal.

`CC1C(=O)NC(Cc2ccc(F)cc2)C(=O)NCCCc2ccccc2O[C@H](C)CNC(C2CC2)C(=O)N1C` (some centres unmarked) [compound 298] was tested. Which Ki ([1]; Table 3B, binding activity at the human ghrelin receptor) did it give?
Its Ki is 10 to 100 nM.

And the Ki ([1]; Table 4, TFA salts unless otherwise noted)?
Its Ki is 10 to 100 nM.

And the “binding to hGHS-R1a” value ([1]; representative binding inhibition curve, FIG. 10)?
Its value is “binds competitively, reversibly, and with high affinity”.

What about the IGF-1 levels ([2]; 1000 μg/kg dose) of the same compound?
Its IGF-1 levels is “No changes in IGF-1 levels”.

What about the “effect on GH release” value ([2]; FIG. 9) of the same compound?
Its value is “lack of effect on GH release”.

What about the “effect on ghrelin-induced GH release” value ([2]; dosed 10 min. prior to ghrelin, FIG. 12B) of the same compound?
The value was “neither inhibits nor augments ghrelin-induced GH release”.

And the “pulsatile GH release in comparison to vehicle controls” value ([2]; doses up to 1000 μg/kg i.v.)?
Its value is “no significant difference in pulsatile GH release”.

And the opioid-delayed gastrointestinal transit [3]?
The opioid-delayed gastrointestinal transit was “effectively reversed in a dose-dependent manner”.
